The values below come from patent publication US20240197726A1, “NOVEL TETRAHYDROISOQUINOLINE ALKALOID COMPOUND CONTAINING MACROCYCLE” (THE UNIVERSITY OF TOKYO, priority 2021, published 2024).

What all share (assay type): cell-based
The subject of assay [1] is HBC-4 breast cancer cells. The experiment in a line: antitumor activity, sulforhodamine B cell growth assay, HBC-4. As to conditions: HBC-4, drug exposure 48 hours; read-out: GI50 value: 50% growth inhibitory concentration. In a few lines: (§1)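 SRB absorbance at 525 nm after 48 h drug exposure; RPMI 1640 + 5% FBS, overnight attachment. % growth from control, test and T0 wells; log GI50/TGI/LC50 by linear interpolation between bracketing concentrations at PG 50/0/−50.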

Assay [2] relates to BSY-1 breast cancer cells. Kind of assay: antitumor activity, sulforhodamine B cell growth assay, BSY-1. Particulars: BSY-1, drug exposure 48 hours; read-out: GI50 value: 50% growth inhibitory concentration. A digest of the protocol: as §1
The test system of assay [3] is MCF-7 breast cancer cells. Kind of assay: antitumor activity, sulforhodamine B cell growth assay, MCF-7. As to conditions: MCF-7, drug exposure 48 hours; read-out: GI50 value: 50% growth inhibitory concentration. How it is done:
(§2) The THIQ compound containing a macrocyclic structure of the present invention was administered to various cancer cell lines, and the antitumor activity (Go value) was observed. Specifically, verification was performed according to the literature (Yamori, T.; Matsunaga, A.; Sato, S.; Yamazaki, K.; Komi, A.; Ishizu, K. et al. Cancer Res. 1999, 59, 4042) by the following procedure.
(§3) Cells were plated at an appropriate density in a 96-well plate in RPMI 1640 together with 5% fetal bovine serum, and adhered overnight. The cells were exposed to a drug for 48 hours. Then, according to the sulforhodamine B assay described by Skehan et al (Skehan P., Storeng R., Scudiero D., Monks A., McMahon J., Vistica D., Warren J. T., Bokesch H., Kenney S., Boyd M. R. J Natl. Cancer Inst, 1990, 82, 1107-1112), the cell growth rate was measured. The absorbance of the control well (C) and the test well (T) was measured at 525 nm. In addition, the time at which the drug was added was set as time 0, and the absorbance for the test well (T0) was measured. Using these measured values, the cell growth inhibitory effect (% growth=PG) was calculated by the following formula at each concentration of the drug.
(§4) (T<T0): PG=100×[(T−T0)/T]
(§5) The PG values determined above for each cell line were plotted against the concentration (logarithm) on a semi-logarithmic graph, and summarized for each visceral cancer. Concentrations at which the dose-response curve of each cell line crossed the horizontal line of PG=50%, 0%, or −50% were calculated. These concentrations were defined as Log GI50, Log TGI, and Log LC50. Actually, using two data points of the drug concentration before and after crossing each horizontal line, the drug concentration (logarithmic value) at the intersection of the straight line connecting the two points and the horizontal line for each PG was calculated.

The test system of assay [4] is MDA-MB-231 breast cancer cells. Kind of assay: antitumor activity, sulforhodamine B cell growth assay, MDA-MB-231. As to conditions: MDA-MB-231, drug exposure 48 hours; read-out: GI50 value: 50% growth inhibitory concentration. In a few lines: as §1
Assay [5] deals with SF-295 central nervous system cancer cells. The experiment in a line: antitumor activity, sulforhodamine B cell growth assay, SF-295. As to conditions: SF-295, drug exposure 48 hours; read-out: GI50 value: 50% growth inhibitory concentration. A digest of the protocol: as §1
The subject of assay [6] is SNB-75 central nervous system cancer cells. The experiment in a line: antitumor activity, sulforhodamine B cell growth assay, SNB-75. Particulars: SNB-75, drug exposure 48 hours; read-out: GI50 value: 50% growth inhibitory concentration. In a few lines: as §1
Assay [7] relates to SNB-78 central nervous system cancer cells. The experiment in a line: antitumor activity, sulforhodamine B cell growth assay, SNB-78. As to conditions: SNB-78, drug exposure 48 hours; read-out: GI50 value: 50% growth inhibitory concentration. A digest of the protocol:
as §1

The subject of assay [8] is HCC2998 colorectal cancer cells. Kind of assay: antitumor activity, sulforhodamine B cell growth assay, HCC2998. Particulars: HCC2998, drug exposure 48 hours; read-out: GI50 value: 50% growth inhibitory concentration. A digest of the protocol:
as §1

Assay [9] deals with KM-12 colorectal cancer cells. Kind of assay: antitumor activity, sulforhodamine B cell growth assay, KM-12. Particulars: KM-12, drug exposure 48 hours; read-out: GI50 value: 50% growth inhibitory concentration. In a few lines: as §1
Assay [10] deals with HCT-116 colorectal cancer cells. Kind of assay: antitumor activity, sulforhodamine B cell growth assay, HCT-116. Particulars: HCT-116, drug exposure 48 hours; read-out: GI50 value: 50% growth inhibitory concentration. In a few lines:
as §1

Assay [11] has as its system NCI-H226 lung cancer cells. The experiment in a line: antitumor activity, sulforhodamine B cell growth assay, NCI-H226. Particulars: NCI-H226, drug exposure 48 hours; read-out: GI50 value: 50% growth inhibitory concentration. In a few lines: as §1
The test system of assay [12] is NCI-H460 lung cancer cells. The experiment in a line: antitumor activity, sulforhodamine B cell growth assay, NCI-H460. As to conditions: NCI-H460, drug exposure 48 hours; read-out: GI50 value: 50% growth inhibitory concentration. A digest of the protocol: as §1
In another assay the test system is A549 lung cancer cells. Kind of assay: antitumor activity, sulforhodamine B cell growth assay, A549. As to conditions: A549, drug exposure 48 hours; read-out: GI50 value: 50% growth inhibitory concentration. A digest of the protocol: as §1
The next assay concerns DMS114 lung cancer cells. Kind of assay: antitumor activity, sulforhodamine B cell growth assay, DMS114. As to conditions: DMS114, drug exposure 48 hours; read-out: GI50 value: 50% growth inhibitory concentration. A digest of the protocol: as §1
The subject of a further assay is OVCAR-3 cancer cells. The experiment in a line: antitumor activity, sulforhodamine B cell growth assay, OVCAR-3. Particulars: OVCAR-3, drug exposure 48 hours; read-out: GI50 value: 50% growth inhibitory concentration. The method, then: as §2, §3, §4, §5
For assay [13], the system named is OVCAR-5 cervical cancer cells. Kind of assay: antitumor activity, sulforhodamine B cell growth assay, OVCAR-5. As to conditions: OVCAR-5, drug exposure 48 hours; read-out: GI50 value: 50% growth inhibitory concentration. How it is done:
as §2, §3, §4, §5

Another assay deals with OVCAR-8 cancer cells. Kind of assay: antitumor activity, sulforhodamine B cell growth assay, OVCAR-8. Particulars: OVCAR-8, drug exposure 48 hours; read-out: GI50 value: 50% growth inhibitory concentration. The method, then: as §2, §3, §4, §5
Assay [14] has as its system RXF-631L kidney cancer cells. The experiment in a line: antitumor activity, sulforhodamine B cell growth assay, RXF-631L. Particulars: RXF-631L, drug exposure 48 hours; read-out: GI50 value: 50% growth inhibitory concentration. How it is done: as §2, §3, §4, §5
The subject of assay [15] is St-4 gastric cancer cells. The experiment in a line: antitumor activity, sulforhodamine B cell growth assay, St-4. Particulars: St-4 (SI-4 in Tables 2-11), drug exposure 48 hours; read-out: GI50 value: 50% growth inhibitory concentration. In a few lines: as §1
The test system of assay [16] is MKN1 gastric cancer cells. Kind of assay: antitumor activity, sulforhodamine B cell growth assay, MKN1. Particulars: MKN1, drug exposure 48 hours; read-out: GI50 value: 50% growth inhibitory concentration. A digest of the protocol:
as §1

Assay [17] has as its system MKN-B gastric cancer cells. Kind of assay: antitumor activity, sulforhodamine B cell growth assay, MKN-B. As to conditions: MKN-B, drug exposure 48 hours; read-out: GI50 value: 50% growth inhibitory concentration. In a few lines: as §1
The test system of assay [18] is various cancer cell lines. The experiment in a line: Verification of antitumor activity, whole panel of cancer cell lines. As to conditions: in words, compared with Cyanosafracin B. The method, then:
as §2, §3, §4, §5

As for `C=C1/C=C/CN[C@@H](C)C(=O)NCC2c3c(c(c(C)c4c3OCO4)OC1)C[C@H]1[C@H]3c4c(cc(C)c(OC)c4O)C[C@@H]([C@H](C#N)N21)N3C` [Compound 33], the GI50 is 32 nM in assay [1]; 18 nM in assay [2]; 26 nM in assay [3]; 52 nM in assay [4]; 270 nM in assay [5]; 96 nM in assay [6]. In addition, the GI50 came to 83 nM in assay [7]; 140 nM in assay [8]; 110 nM in assay [9]; 87 nM in assay [10]; 260 nM in [11]; 260 nM in assay [12]. The GI50 was found to be 360 nM with A549 lung cancer cells; 31 nM in the assay on DMS114 lung cancer cells; 70 nM in the assay with OVCAR-3 cancer cells; 310 nM in assay [13]; 180 nM in the assay on OVCAR-8 cancer cells; 300 nM in [14]. Also, the GI50 stood at 270 nM in assay [15], 68 nM in assay [16] and 220 nM in [17]. For the same molecule, in assay [18], the antitumor activity entry was “better antitumor activity than Cyanosafracin B”.

Take `COc1c(C)cc2c(c1O)C1C3Cc4c5c(C)c6c(c4C(CNC(=O)C(C)NCC=CCO5)N3C(C#N)C(C2)N1C)OCO6` (centres unmarked) [Compound 42]: the GI50 in [1] is below 10 nM; in [2], below 10 nM; in assay [3], below 10 nM; in assay [4], below 10 nM; in assay [5], 38 nM; in assay [6] it was below 10 nM. Further, the GI50 in assay [7] is 11 nM; in assay [8] it was 18 nM; in [9] it was 19 nM; in assay [10] it was 21 nM; in assay [11], 30 nM; in [12], 22 nM. The GI50 is 110 nM in the assay with A549 lung cancer cells; below 10 nM with DMS114 lung cancer cells; 15 nM in the assay with OVCAR-3 cancer cells; 47 nM in assay [13]; 34 nM in the assay on OVCAR-8 cancer cells; 34 nM in [14]. The GI50 was 37 nM in assay [15], 18 nM in assay [16] and 25 nM in assay [17]. Besides, in assay [18], the antitumor activity entry is “better antitumor activity than Cyanosafracin B”.
